Measured values: patent US20230075856A1, “CYCLIC SULFAMIDE COMPOUNDS FOR TREATMENT OF HBV” (Assembly Biosciences, Inc., priority 2018, published 2023)

System: HBV viral load production from HepAD38 cells
Experiment: Viral production from HepAD38 cells: viral load in supernatant by qPCR of the HBV core sequence
Format: cell-based
Conditions: Hepatitis B virus, HePAD38, 120 h, 5 days incubation, qPCR of supernatant HBV DNA vs DMSO control, read-out: viral load lowering EC50 (Activity)
How it was run: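 HepAD38 cells seeded at 50,000/well in tetracycline-free medium with 2% FBS, treated with compounds (final top concentration 10 μM) for 5 days at 37 °C. Supernatant HBV DNA quantified by TaqMan qPCR of core sequence against HBV DNA standards, relative to DMSO controls; EC50 by four-parameter logistic fit.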

Structure (SMILES) | EC50 [nM]
CN1C(C(=O)Nc2ccc(F)c(Cl)c2)CC(C(=O)NCc2cnc(-c3ccc(C#N)cc3F)s2)NS1(=O)=O (stereo not shown) [Compound 920] | < 50
CCN1CCC(Oc2ccc(-c3ncc(CNC(=O)C4CC(C(=O)Nc5ccc(F)c(Cl)c5)N(C)S(=O)(=O)N4)s3)cc2)CC1 (stereo not shown) [Compound 921] | 50 to 100
CN1C(C(=O)Nc2ccc(F)c(Cl)c2)CC(C(=O)NCc2cnc(-c3ccc(OCCN4CCCCC4)cc3)s2)NS1(=O)=O (stereo not shown) [Compound 922] | < 50
CN1C(C(=O)Nc2ccc(F)c(Cl)c2)CC(C(=O)NCc2cnc(-c3ccc(SCCCO)cc3)s2)NS1(=O)=O (stereo not shown) [Compound 923] | 50 to 100
CN1C(C(=O)Nc2ccc(F)c(Cl)c2)CC(C(=O)NCc2cnc(-c3ccc(O)cc3)s2)NS1(=O)=O (stereo not shown) [Compound 924] | < 50
CN1C(C(=O)Nc2ccc(F)c(Cl)c2)CC(C(=O)NCc2cnc(-c3ccc(C#CCCO)cc3)s2)NS1(=O)=O (stereo not shown) [Compound 926] | < 50
CN1C(C(=O)Nc2ccc(F)c(Cl)c2)CC(C(=O)NCc2cnc(-c3ccc(OCCCN4CCCC4)cc3)s2)NS1(=O)=O (stereo not shown) [Compound 928] | 50 to 100
CN1C(C(=O)Nc2ccc(F)c(Cl)c2)CC(C(=O)NCc2cnc(-c3cscn3)s2)NS1(=O)=O (stereo not shown) [Compound 929] | < 50
COc1ccc(-c2ncc(CNC(=O)C3CC(C(=O)Nc4ccc(F)c(Cl)c4)N(C)S(=O)(=O)N3)s2)cc1 (stereo not shown) [Compound 932] | < 50
CN1C(C(=O)Nc2ccc(F)c(Cl)c2)CC(C(=O)NCc2cnc(-c3ccc(OCCCN4CCCCC4)cc3)s2)NS1(=O)=O (stereo not shown) [Compound 942] | 50 to 100
CN(C)CC(C)(C)COc1ccc(-c2ncc(CNC(=O)C3CC(C(=O)Nc4ccc(F)c(Cl)c4)N(C)S(=O)(=O)N3)s2)cc1 (stereo not shown) [Compound 943] | < 50
CN1C(C(=O)Nc2ccc(F)c(Cl)c2)CC(C(=O)NCc2cnc(-c3ccc(C#CCN4CCCCC4)cc3)s2)NS1(=O)=O (stereo not shown) [Compound 946] | 50 to 100
CN1C(C(=O)Nc2ccc(F)c(Cl)c2)CC(C(=O)NCc2csc(-c3ccc(OCCN4CCCCC4)cc3)n2)NS1(=O)=O (stereo not shown) [Compound 957] | < 50
CN1C(C(=O)Nc2ccc(F)c(Cl)c2)CC(C(=O)NCC2CCN(c3ccccn3)CC2)NS1(=O)=O (stereo not shown) [Compound 961] | 100 to 10000
CN1C(C(=O)Nc2ccc(F)c(Cl)c2)CC(C(=O)NC2CCN(C(=O)OCCN3CCCCC3)CC2)NS1(=O)=O (stereo not shown) [Compound 963] | 100 to 10000
CN1C(C(=O)Nc2ccc(F)c(Cl)c2)CC(C(=O)NC2CCN(C(=O)OCCCN3CCCCC3)CC2)NS1(=O)=O (stereo not shown) [Compound 964] | 100 to 10000
Cc1ccnc(N2CCC(NC(=O)C3CC(C(=O)Nc4ccc(F)c(Cl)c4)N(C)S(=O)(=O)N3)CC2)c1 (stereo not shown) [Compound 971] | < 50
COc1ccnc(N2CCC(NC(=O)C3CC(C(=O)Nc4ccc(F)c(Cl)c4)N(C)S(=O)(=O)N3)CC2)c1 (stereo not shown) [Compound 972] | < 50
CN1C(C(=O)Nc2ccc(F)c(Cl)c2)CC(C(=O)NC2CCN(c3cc(Cl)ccn3)CC2)NS1(=O)=O (stereo not shown) [Compound 974] | < 50
CN1C(C(=O)Nc2ccc(F)c(Cl)c2)CC(C(=O)NC2CCN(c3cc(CN4CCCCC4)ccn3)CC2)NS1(=O)=O (stereo not shown) [Compound 975] | < 50
CN1C(C(=O)Nc2ccc(F)c(Cl)c2)CC(C(=O)NC2CCCc3nc(Br)sc32)NS1(=O)=O (stereo not shown) [Compound 978] | < 50
CN1CCC(Oc2ccc(-c3ncc(CNC(=O)C4CC(C(=O)Nc5ccc(F)c(Cl)c5)N(C)S(=O)(=O)N4)s3)cc2)CC1 (stereo not shown) [Compound 979] | < 50

Structure (SMILES) | EC50 [nM]
CN1C(C(=O)Nc2ccc(F)c(Cl)c2)CC(C(=O)NCc2cc(Br)no2)NS1(=O)=O (stereo not shown) [Compound 980] | 100 to 10000
COc1ccccc1-c1ncc(CNC(=O)C2CC(C(=O)Nc3ccc(F)c(Cl)c3)N(C)S(=O)(=O)N2)s1 (stereo not shown) [Compound 987] | < 50
COc1ccc(-c2ncc(CNC(=O)C3CC(C(=O)Nc4ccc(F)c(Cl)c4)N(C)S(=O)(=O)N3)s2)c(Cl)c1 (stereo not shown) [Compound 988] | < 50
CN1C(C(=O)Nc2ccc(F)c(Cl)c2)CC(C(=O)NCc2ccn(-c3ccccc3)n2)NS1(=O)=O (stereo not shown) [Compound 991] | < 50
CN1C(C(=O)Nc2ccc(F)c(Cl)c2)CC(C(=O)NCc2csc(Cl)n2)NS1(=O)=O (stereo not shown) [Compound 1006] | 50 to 100
CC(NC(=O)C1CC(C(=O)Nc2ccc(F)c(Cl)c2)N(C)S(=O)(=O)N1)c1csc(Cl)n1 (stereo not shown) [Compound 1007] | < 50
CN1C(C(=O)Nc2ccc(F)c(Cl)c2)CC(C(=O)NCc2ncc(-c3ccc(O)cc3)s2)NS1(=O)=O (stereo not shown) [Compound 1009] | < 50
CN1C(C(=O)Nc2ccc(F)c(Cl)c2)CC(C(=O)NCc2nc3ccc(O)cc3s2)NS1(=O)=O (stereo not shown) [Compound 1010] | < 50
COc1ccc2nc(CNC(=O)C3CC(C(=O)Nc4ccc(F)c(Cl)c4)N(C)S(=O)(=O)N3)sc2c1 (stereo not shown) [Compound 1011] | < 50
CN1C(C(=O)Nc2ccc(F)c(Cl)c2)CC(C(=O)NC2CCN(c3ccnc(Cl)c3)CC2)NS1(=O)=O (stereo not shown) [Compound 1012] | < 50
CN1C(C(=O)Nc2ccc(F)c(Cl)c2)CC(C(=O)NC(c2ccccc2)c2ccccc2)NS1(=O)=O (stereo not shown) [Compound 1014] | < 50
Cc1nc(-c2ccccc2Cl)sc1CNC(=O)C1CC(C(=O)Nc2ccc(F)c(Cl)c2)N(C)S(=O)(=O)N1 (stereo not shown) [Compound 1015] | < 50
Cc1nc(-c2ccccc2F)sc1CNC(=O)C1CC(C(=O)Nc2ccc(F)c(Cl)c2)N(C)S(=O)(=O)N1 (stereo not shown) [Compound 1016] | < 50
Cc1ccccc1-c1nc(C)c(CNC(=O)C2CC(C(=O)Nc3ccc(F)c(Cl)c3)N(C)S(=O)(=O)N2)s1 (stereo not shown) [Compound 1017] | < 50
CN1C(C(=O)Nc2ccc(F)c(Cl)c2)CC(C(=O)NC2CCCc3nc(-c4ccccc4Cl)sc32)NS1(=O)=O (stereo not shown) [Compound 1018] | < 50
CC(NC(=O)C1CC(C(=O)Nc2ccc(F)c(Cl)c2)N(C)S(=O)(=O)N1)c1cnc(-c2ccccc2Cl)s1 (stereo not shown) [Compound 1019] | < 50
CN1C(C(=O)Nc2ccc(F)c(Cl)c2)CC(C(=O)NCc2cc(-c3ccccc3Cl)no2)NS1(=O)=O (stereo not shown) [Compound 1025] | < 50
CN1C(C(=O)Nc2ccc(F)c(Cl)c2)CC(C(=O)NCc2cnc(-c3ccc(O)cc3Cl)s2)NS1(=O)=O (stereo not shown) [Compound 1028] | < 50
CC(NC(=O)C1CC(C(=O)Nc2ccc(F)c(Cl)c2)N(C)S(=O)(=O)N1)c1csc(-c2ccccc2Cl)n1 (stereo not shown) [Compound 1029] | 100 to 10000
CC(NC(=O)C1CC(C(=O)Nc2ccc(F)c(Cl)c2)N(C)S(=O)(=O)N1)c1cnc(Cl)s1 (stereo not shown) [Compound 1030] | < 50
Cc1nc(Cl)sc1CNC(=O)C1CC(C(=O)Nc2ccc(F)c(Cl)c2)N(C)S(=O)(=O)N1 (stereo not shown) [Compound 1031] | < 50
CN1C(C(=O)Nc2ccc(F)c(Cl)c2)CC(C(=O)NC2CCN(Cc3cccnc3Br)CC2)NS1(=O)=O (stereo not shown) [Compound 1033] | 100 to 10000

Structure (SMILES) | EC50 [nM]
CN1C(C(=O)Nc2ccc(F)c(Cl)c2)CC(C(=O)NC2CCN(c3ccnc(Br)c3)CC2)NS1(=O)=O (stereo not shown) [Compound 1036] | < 50
CN1C(C(=O)Nc2ccc(F)c(Cl)c2)CC(C(=O)NC2CCN(c3ccnc(F)c3)CC2)NS1(=O)=O (stereo not shown) [Compound 1040] | < 50
CN1C(C(=O)Nc2ccc(F)c(Cl)c2)CC(C(=O)NC2CCN(c3ccnc(-c4ccccc4)c3)CC2)NS1(=O)=O (stereo not shown) [Compound 1050] | < 50
CN1C(C(=O)Nc2ccc(F)c(Cl)c2)CC(C(=O)NC2CCN(c3ccnc(C4CC4)c3)CC2)NS1(=O)=O (stereo not shown) [Compound 1051] | < 50
CN1C(C(=O)Nc2ccc(F)c(Cl)c2)CC(C(=O)NC2CCN(c3ccnc(-c4cn(C)cn4)c3)CC2)NS1(=O)=O (stereo not shown) [Compound 1052] | < 50
CN1C(C(=O)Nc2ccc(F)c(Cl)c2)CC(C(=O)NC2CCN(c3ccnc(Cl)n3)CC2)NS1(=O)=O (stereo not shown) [Compound 1054] | < 50
CN1C(C(=O)Nc2ccc(F)c(Cl)c2)CC(C(=O)N[C@@H]2CCN(c3ccnc(Cl)c3)C2)NS1(=O)=O (stereo partly shown) [Compound 1055-R] | < 50
CN1C(C(=O)Nc2ccc(F)c(Cl)c2)CC(C(=O)N[C@H]2CCN(c3ccnc(Cl)c3)C2)NS1(=O)=O (stereo partly shown) [Compound 1055-S] | < 50
CN1C(C(=O)Nc2ccc(F)c(Cl)c2)CC(C(=O)NC2CCN(c3ccnc(Cl)c3)C2)NS1(=O)=O (stereo not shown) [Compound 1055] | < 50
Cc1nc(-c2ccc(F)cc2)sc1CNC(=O)C1CC(C(=O)Nc2ccc(F)c(Cl)c2)N(C)S(=O)(=O)N1 (stereo not shown) [Compound 1056] | < 50
Cc1cn(-c2ccccc2)nc1CNC(=O)C1CC(C(=O)Nc2ccc(F)c(Cl)c2)N(C)S(=O)(=O)N1 (stereo not shown) [Compound 1057] | < 50
CN1C(C(=O)Nc2ccc(F)c(Cl)c2)CC(C(=O)NCc2sc(Cl)nc2C(F)(F)F)NS1(=O)=O (stereo not shown) [Compound 1062] | 50 to 100
CN1C(C(=O)Nc2ccc(F)c(Cl)c2)CC(C(=O)NCc2sc(-c3ccccc3)nc2C(F)(F)F)NS1(=O)=O (stereo not shown) [Compound 1063] | < 50
CN1C(C(=O)Nc2ccc(F)c(Cl)c2)CC(C(=O)NCc2sc(-c3ccccc3Cl)nc2C(F)(F)F)NS1(=O)=O (stereo not shown) [Compound 1064] | < 50
Cc1nc(-c2ccccn2)sc1CNC(=O)C1CC(C(=O)Nc2ccc(F)c(Cl)c2)N(C)S(=O)(=O)N1 (stereo not shown) [Compound 1065] | < 50
CN1C(C(=O)Nc2ccc(F)c(Cl)c2)CC(C(=O)NC(c2ccccc2)c2cnc(Cl)s2)NS1(=O)=O (stereo not shown) [Compound 1066] | < 50
CN1C(C(=O)Nc2ccc(F)c(Cl)c2)CC(C(=O)NC(c2ccccc2)c2cnc(-c3ccccc3)s2)NS1(=O)=O (stereo not shown) [Compound 1067] | < 50
CN1C(C(=O)Nc2ccc(F)c(Cl)c2)CC(C(=O)NC(c2ccccc2)c2cnc(-c3ccccc3Cl)s2)NS1(=O)=O (stereo not shown) [Compound 1068] | 50 to 100
Cc1nc(CNC(=O)C2CC(C(=O)Nc3ccc(F)c(Cl)c3)N(C)S(=O)(=O)N2)sc1Br (stereo not shown) [Compound 1069] | < 50
Cc1nc(CNC(=O)C2CC(C(=O)Nc3ccc(F)c(Cl)c3)N(C)S(=O)(=O)N2)sc1-c1ccccc1 (stereo not shown) [Compound 1070] | < 50
